Test results taken from patent publication US20200016173A1 (CHINA MEDICAL UNIVERSITY, priority 2016, published 2020).

What was measured:
[1] = system: human stomach gastric carcinoma (SNU-1) xenograft; assay: human-tumor xenograft in athymic nude mice; assay type: in vivo; settings: I.P., 5-FU 5 mg/kg, Exe 100 mg/kg, 3 times/wk for 4-wks
gastric cancer = settings: fluorouracil chemotherapy, GCa patients; cited from earlier work

SMILES: O=c1[nH]cc(F)c(=O)[nH]1 [5-FU, fluorouracil]
- tumor growth [1]: suppress
- toxicity (patients with other gastrointestinal malignancies) (gastric cancer): > 50 % patients
